Measured values reported in US6482805B2 (Parker Hughes Institute, priority 1998, dated 2002).

Columns and labels:
female Swiss (CD-1) mice = experiment: Fertility of female mice after artificial insemination with intravaginal application (Example 7); type: in vivo, mouse
Excerpt: Because fertilization in vivo is dependent on successful sperm transport through the female genital tract, we next determined whether exposure of sperm to the WHI-07 in vivo affected the subsequent fertility outcome. Hormonally primed adult female Swiss (CD-1) mice were artificially inseminated with motile epididymal sperm via the cervix with and without prior intravaginal application of WHI-07 in a cream base. Females were examined 8 days later for the presence or absence of embryos in uteri.
More particularly, adult (5-6 months old) female CD-1 mice were superovulated by an intraperitoneal injection (i. p.) of 5 IU of pregnant mare's serum gonadotropin followed by an i.p. injection of 5 IU of human chorionic gonadotropin 46-48 hours later. Mice were randomly assigned to one of the two treatment groups (27 or 24/group); vehicle controls [cream base (Taro Pharmaceuticals, Hawthorne, N.J.) with 1% DMSO], or test group (cream base with 1% WHI-07 in 1% DMSO) and given intravaginally (50 μl) prior to artificial insemination. Caudae epididymal sperm were obtained from proven breeder adult CD-1 male (5-6 months old) [B. Hogan, R. Beddington, F. Costantini, E. Lacy, Eds., Manipulating the Mouse Embryo (Cold Spring Harbor Laboratory Press, Plainview, N.Y., 1994] and suspended in a modified Krebs Ringer-bicarbonate medium (M2; Gibco-BRL) supplemented with pyruvate, lactate, and glucose. Sperm were capacitated in M2 medium-5% BSA for 1 hour prior to use. For each experiment cauda epididymal sperm pooled from 25 male mice and adjusted to 1-2×10^6 motile sperm/50 μl were used for insemination. A 50 μl volume/mouse was ejected through a 1 ml syringe with a blunted 18 gauge needle. Preparations were analyzed for sperm concentration, motility, and sperm motion parameters by CASA using software designed for oval sperm head morphology (Hamilton Thorne). On day 8, individual females representing the control and test group were killed and their uteri were examined for the presence or absence of embryos. A total of three independent fertility experiments were performed.

HIV-1 strain HTLVIIIB = experiment: In vitro anti-HIV-1 activity, HTLVIIIB p24 assay in PBMC (Example 9); type: cell-based; details: Human immunodeficiency virus 1; HIV-1 replication in PBMC, p24 antigen production
Method: The HIV-1 strain, HTLVIIIB, which was propagated in CCRF-CEM cells, was used for in vitro assays of the anti-HIV-1 activity of selected novel WHI-07 analogues. Cell-free supernatants of HTLVIIIB-infected CCRF-CEM cells were harvested, dispensed into 1 ml aliquots, and frozen at −70° C. Titration of stock virus was performed by examining its cytopathic effects in MT-2 cells. [see, Uckun FM, et al., Antimicrob Agents Chemther 1998; 42:383-388]. Normal human peripheral blood mononuclear cells (PBMC) from HIV-negative donors were cultured for 72 h in RPMI 1640 supplemented with 20%(v/v) heat-inactivated fetal bovine serum (FBS), 3% interleukin-2, 2 mM L-glutamine, 25 mM HEPES, 2 g/L NaHCO3, 50 μg/ml gentamicin, and 4 μg/ml phytohemagglutinin prior to exposure to HIV-1 at a multiplicity of infection of 0.1 during a 1 h adsorption period at 37° C. in a humidified 5% CO2 atmosphere. […] Percent viral inhibition was calculated by comparing the p24 values from the drug-treated infected cells with p24 values from untreated infected cells (i.e., virus controls). […] A microculture tetrazolium assay, using 2,3-bis(2-methoxy-4-nitro-5-sulfophenyl)-5-[(phenylamino)-carbonyl]-2H-tetrazolium hydroxide, was performed to quantitate cellular proliferation.

[1] = experiment 1, 27 mice, 1% WHI-07 in cream base intravaginally, day 8
[2] = experiment 2, 27 mice, 1% WHI-07 in cream base intravaginally, day 8
[3] = experiment 3, 24 mice, 1% WHI-07 in cream base intravaginally, day 8
[4] = total of three experiments, 78 mice, p < 0.001 vs control

COC(=O)C(C)NP(=O)(OCC1OC(N2C(=O)NC(=O)C(C)(Br)C2OC)CC1N=[N+]=[N-])Oc1ccc(Br)cc1 (stereo not drawn) [WHI-07, 5-Bromo-6-methoxy-5,6-dihydro-3′-azidothymidine-5′-(p-Bromophenyl Methoxyalaninyl Phosphate)]
No. of WHI-07-treated mice fertile (female Swiss (CD-1) mice; [1]): 2 | WHI-07-treated mice fertile (%) (female Swiss (CD-1) mice; [1]): 7.4% | No. of WHI-07-treated mice fertile (female Swiss (CD-1) mice; [2]): 1 | WHI-07-treated mice fertile (%) (female Swiss (CD-1) mice; [2]): 3.7% | No. of WHI-07-treated mice fertile (female Swiss (CD-1) mice; [3]): 3 | WHI-07-treated mice fertile (%) (female Swiss (CD-1) mice; [3]): 12.5% | No. of WHI-07-treated mice fertile (female Swiss (CD-1) mice; [4]): 6 | WHI-07-treated mice fertile (%) (female Swiss (CD-1) mice; [4]): 7.6% | IC50 (HIV-1 strain HTLVIIIB): 5 nM
